Measured values from patent US9273057B2 (Bristol-Myers Squibb Company, priority 2012, dated 2016).

Target: CK2A1 (CK2α/β) (Homo sapiens, UniProt P68400)
Test: CK2 kinase assay, CK2A1 (CK2α/β)
Format: biochemical
Conditions: Table A; read-out: CK2A1 (CK2α/β) (IC50)

Chain of CK2A1 (CK2α/β) (P68400 whole entry, species assumed): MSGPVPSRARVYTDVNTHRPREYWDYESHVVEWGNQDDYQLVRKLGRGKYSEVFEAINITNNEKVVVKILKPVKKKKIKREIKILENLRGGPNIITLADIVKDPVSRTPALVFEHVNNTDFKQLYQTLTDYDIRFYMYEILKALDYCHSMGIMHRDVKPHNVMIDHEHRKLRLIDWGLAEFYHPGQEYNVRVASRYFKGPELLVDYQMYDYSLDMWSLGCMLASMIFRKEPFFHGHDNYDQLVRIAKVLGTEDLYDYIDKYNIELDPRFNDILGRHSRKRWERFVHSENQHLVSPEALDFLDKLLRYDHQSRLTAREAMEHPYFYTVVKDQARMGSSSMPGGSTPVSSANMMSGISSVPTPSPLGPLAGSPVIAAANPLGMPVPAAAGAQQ
Chain of CK2A1 (CK2α/β) (P67870 whole entry partner, species assumed): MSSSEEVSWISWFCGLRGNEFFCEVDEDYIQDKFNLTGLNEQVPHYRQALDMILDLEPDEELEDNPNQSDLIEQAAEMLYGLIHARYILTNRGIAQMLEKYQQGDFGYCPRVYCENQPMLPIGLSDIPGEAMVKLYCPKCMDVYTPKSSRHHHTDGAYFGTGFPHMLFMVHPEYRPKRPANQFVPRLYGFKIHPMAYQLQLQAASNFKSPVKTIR

| IC50 | SMILES |
| --- | --- |
| 28.2 nM | CCOC(=O)C1CCN(c2cc(C(F)F)cc(Nc3nc(NC4CC4)c4ncc(C#N)n4n3)c2Cl)CC1 [Example 544, ethyl 1-(2-chloro-3-((7-cyano-4-(cyclopropylamino)imidazo[2,1-f][1,2,4]triazin-2-yl)amino)-5-(difluoromethyl)phenyl)piperidine-4-carboxylate] |
| 0.75 nM | N#Cc1cc(Nc2nc(NC3CC3)c3ncc(C#N)n3n2)c(Cl)c(OC[C@@H]2COCCN2)c1 [Example 439, (S)-2-((2-chloro-5-cyano-3-(morpholin-3-ylmethoxy)phenyl)amino)-4-(cyclopropylamino)imidazo[2,1-f][1,2,4]triazine-7-carbonitrile] |
| 17.3 nM | CCNc1nc(Nc2cc(C#N)cc(N[C@@H]3CCN(C(=O)OC)C[C@H]3O)c2Cl)nn2c(C#N)cnc12 [Example 846, (3R,4R)-methyl 4-((2-chloro-5-cyano-3-((7-cyano-4-(ethylamino)imidazo[2,1-f][1,2,4]triazin-2-yl)amino)phenyl)amino)-3-hydroxypiperidine-1-carboxylate] |
| 1.22 nM | CC(c1cc(C#N)cc(Nc2nc(NC3CC3)c3ncc(C#N)n3n2)c1Cl)N1CCNC(=O)C1 (racemic) [Example 679, (+/−)-2-((2-chloro-5-cyano-3-(1-(3-oxopiperazin-1-yl)ethyl)phenyl)amino)-4-(cyclopropylamino)imidazo[2,1-f][1,2,4]triazine-7-carbonitrile] |
| 0.8 nM | CCNc1nc(Nc2ccc3c(c2)c(C#N)cn3C2CCN(CC(O)CF)CC2)nn2c(C#N)cnc12 (racemic) [Example 824, (+/−)-2-((3-cyano-1-(1-(3-fluoro-2-hydroxypropyl)piperidin-4-yl)-1H-indol-5-yl)amino)-4-(ethylamino)imidazo[2,1-f][1,2,4]triazine-7-carbonitrile] |
| 0.34 nM | CCNc1nc(Nc2cc(C#N)cc(N3CCC(N)CC3)c2Cl)nn2c(C#N)cnc12 [Example 329, 2-((3-(4-aminopiperidin-1-yl)-2-chloro-5-cyanophenyl)amino)-4-(ethylamino)imidazo[2,1-f][1,2,4]triazine-7-carbonitrile] |
| 4.24 nM | N#Cc1cc(Nc2nc(NC3CC3)c3ncc(C#N)n3n2)c(Cl)c(N2CCN(C3CN(C(=O)[C@H](O)C(F)(F)F)C3)CC2)c1 [Example 510, 2-{[2-chloro-5-cyano-3-(4-{1-[(2S)-3,3,3-trifluoro-2-hydroxypropanoyl]azetidin-3-yl}piperazin-1-yl)phenyl]amino}-4-(cyclopropylamino)imidazo[2,1-f][1,2,4]triazine-7-carbonitrile] |
| 2.68 nM | CN(CC1CN(c2cc(C#N)cc(Nc3nc(NC4CC4)c4ncc(C#N)n4n3)c2Cl)CCO1)CC(C)(C)O (stereo not drawn) [Example 701, 2-{[2-chloro-5-cyano-3-(2-{[(2-hydroxy-2-methylpropyl)(methyl)amino]methyl}morpholin-4-yl)phenyl]amino}-4-(cyclopropylamino)imidazo[2,1-f][1,2,4]triazine-7-carbonitrile] |
| 1.27 nM | N#Cc1cc(Nc2nc(NC3CC3)c3ncc(C#N)n3n2)c(Cl)c(N2CCC3CCN(CC(O)CF)C3C2)c1 (racemic) [Example 459, (+/−)-2-((2-chloro-5-cyano-3-(1-(3-fluoro-2-hydroxypropyl)hexahydro-1H-pyrrolo[2,3-c]pyridin-6(2H)-yl)phenyl)amino)-4-(cyclopropylamino)imidazo[2,1-f][1,2,4]triazine-7-carbonitrile] |
| 0.85 nM | N#Cc1cc(Nc2nc(NC3CC3)c3ncc(C#N)n3n2)c(Cl)c(C2(O)CCN(C3COC3)CC2)c1 [Example 648, 2-((2-chloro-5-cyano-3-(4-hydroxy-1-(oxetan-3-yl)piperidin-4-yl)phenyl)amino)-4-(cyclopropylamino)imidazo[2,1-f][1,2,4]triazine-7-carbonitrile] |
| 4.84 nM | CC1(C(=O)N2CC(N3CCN(c4cc(C#N)cc(Nc5nc(NC6CC6)c6ncc(C#N)n6n5)c4Cl)CC3)C2)COC1 [Example 515, 2-[(2-chloro-5-cyano-3-{4-[1-(3-methyloxetane-3-carbonyl)azetidin-3-yl]piperazin-1-yl}phenyl)amino]-4-(cyclopropylamino)imidazo[2,1-f][1,2,4]triazine-7-carbonitrile] |
| 1.38 nM | Cc1nn(C)c(C)c1-c1cc(C#N)cc(Nc2nc(NC3CC3)c3ncc(C#N)n3n2)c1Cl [Example 717, 2-((2-chloro-5-cyano-3-(1,3,5-trimethyl-1H-pyrazol-4-yl)phenyl)amino)-4-(cyclopropylamino)imidazo[2,1-f][1,2,4]triazine-7-carbonitrile] |
| 3.7 nM | CC(=O)N1CCOC(c2cc(C#N)cc(Nc3nc(NC4CC4)c4ncc(C#N)n4n3)c2Cl)C1 (racemic) [Example 695, (+/−)-2-((3-(4-acetylmorpholin-2-yl)-2-chloro-5-cyanophenyl)amino)-4-(cyclopropylamino)imidazo[2,1-f][1,2,4]triazine-7-carbonitrile] |
| 3.69 nM | CC1(C(=O)N2CC(N3CCN(c4cc(C#N)cc(Nc5nc(NC6CC6)c6ncc(C#N)n6n5)c4Cl)CC3)C2)COC1 [Example 522, 2-[(2-chloro-5-cyano-3-{4-[1-(3-methyloxetane-3-carbonyl)azetidin-3-yl]piperazin-1-yl}phenyl)amino]-4-(cyclopropylamino)imidazo[2,1-f][1,2,4]triazine-7-carbonitrile] |
| 0.61 nM | N#Cc1cc(Nc2nc(NC3CC3)c3ncc(C#N)n3n2)c(OCCN2CCOCC2)cc1F [Example 421, 2-((5-cyano-4-fluoro-2-(2-morpholinoethoxy)phenyl)amino)-4-(cyclopropylamino)imidazo[2,1-f][1,2,4]triazine-7-carbonitrile] |

The next lines start with the compound.

| SMILES | IC50 |
| --- | --- |
| CC(=O)N1CC(N2CCN(c3cc(C(F)F)cc(Nc4nc(NC5CC5)c5ncc(C#N)n5n4)c3Cl)CC2)C1 [Example 266, 2-((3-(4-(1-acetyl-3-azetidinyl)-1-piperazinyl)-2-chloro-5-(difluoromethyl)phenyl)amino)-4-(cyclopropylamino)imidazo[2,1-f][1,2,4]triazine-7-carbonitrile] | 2.97 nM |
| N#Cc1cc(Nc2nc(NC3CC3)c3ncc(C#N)n3n2)c(Cl)c(N2CCC3(CCCN3)C2)c1 (racemic) [Example 31, (+/−) 2-((2-chloro-5-cyano-3-(1,7-diazaspiro[4.4]non-7-yl)phenyl)amino)-4-(cyclopropylamino)imidazo [2,1-f][1,2,4]triazine-7-carbonitrile] | 0.61 nM |
| N#Cc1cnc2c(NC3CC3)nc(Nc3cc(C(F)F)cc(N4CCOCC4)c3Cl)nn12 [Example 275, 2-((2-chloro-5-(difluoromethyl)-3-(4-morpholinyl)phenyl)amino)-4-(cyclopropylamino)imidazo[2,1-f][1,2,4]triazine-7-carbonitrile] | 3.36 nM |
| N#Cc1cc(Nc2nc(NC3CC3)c3ncc(C#N)n3n2)c(Cl)c(N2CCN(C(=O)CCn3ccnc3)CC2)c1 [Example 98] | 0.36 nM |
| N#Cc1cc(Nc2nc(NC3CC3)c3ncc(C#N)n3n2)c(Cl)c(C2CCN(C3CN(CC4CC4)C3)CC2)c1 [Example 323, 2-((2-chloro-5-cyano-3-(1-(1-(cyclopropylmethyl)-3-azetidinyl)-4-piperidinyl)phenyl)amino)-4-(cyclopropylamino)imidazo [2,1-f][1,2,4]triazine-7-carbonitrile] | 0.59 nM |
| N#Cc1cc(Nc2nc(NC3CC3)c3ncc(C#N)n3n2)c(Cl)c(N2CCC(N[C@@H]3CC[C@H](O)C3)CC2)c1 (racemic) [Example 121, (+/−) 2-((2-chloro-5-cyano-3-(4-(((1R,3S)-3-hydroxycyclopentyl)amino)-1-piperidinyl)phenyl)amino)-4-(cyclopropylamino)imidazo [2,1-f][1,2,4]triazine-7-carbonitrile] | 1.05 nM |
| COC(=O)N[C@H]1CN(c2cc(C#N)cc(Nc3nc(NC4CC4)c4ncc(C#N)n4n3)c2Cl)C[C@@H]1OC [Example 288, methyl ((3S,4S)-1-(2-chloro-5-cyano-3-((7-cyano-4-(cyclopropylamino)imidazo[2,1-f][1,2,4]triazin-2-yl)amino)phenyl)-4-methoxy-3-pyrrolidinyl)carbamate] | 0.91 nM |
| N#Cc1cc(Nc2nc(NC3CC3)c3ncc(C#N)n3n2)c(Cl)c(C2CCN(C(=O)CC(F)(F)F)CC2)c1 [Example 237, 2-((2-chloro-5-cyano-3-(1-(3,3,3-trifIuoropropanoyl)-4-piperidinyl)phenyl)amino)-4-(cyclopropylamino)imidazo[2,1-f][1,2,4]triazine-7-carbonitrile] | 0.41 nM |
| N#Cc1cc(Nc2nc(NC3CC3)c3ncc(C#N)n3n2)c(Cl)c(N2CCN3CCOC[C@H]3C2)c1 [Example 308, (R)-2-((2-chloro-5-cyano-3-(hexahydropyrazino[2,1-c][1,4]oxazin-8(1H)-yl)phenyl)amino)-4-(cyclopropylamino)imidazo[2,1-f][1,2,4]triazine-7-carbonitrile] | 1.67 nM |
| COC(=O)Nc1cc(Nc2nc(NC3CC3)c3ncc(C#N)n3n2)c(Cl)c(N2CC[C@@H](NC(=O)OC)[C@@H](F)C2)c1 (racemic) [Example 202, (+/−) methyl (4-chloro-3-((7-cyano-4-(cyclopropylamino)imidazo[2,1-f][1,2,4]triazin-2-yl)amino)-5-((3S,4R)-3-fluoro-4-((methoxycarbonyl)amino)-1-piperidinyl)phenyl)carbamate] | 0.83 nM |
| COCC(NC1CCN(c2cc(C#N)cc(Nc3nc(NC4CC4)c4ncc(C#N)n4n3)c2Cl)CC1)C1CC1 (racemic) [Example 142, (+/−) 2-((2-chloro-5-cyano-3-(4-((1-cyclopropyl-2-methoxyethyl)amino)-1-piperidinyl)phenyl)amino)-4-(cyclopropylamino)imidazo [2,1-f][1,2,4]triazine-7-carbonitrile] | 0.67 nM |
| N#Cc1cc(Nc2nc(NC3CC3)c3ncc(C#N)n3n2)c(Cl)c(N2CCN(CC(O)CF)CC2)c1 (racemic) [Example 66, (+/−) 2-((2-chloro-5-cyano-3-(4-(3-fluoro-2-hydroxypropyl)-1-piperazinyl)phenyl)amino)-4-(cyclopropylamino) imidazo[2,1-f][1,2,4] triazine-7-carbonitrile] | 0.58 nM |
